Data: patent US9187523B2 (priority 2006, dated 2015)
Where a SMILES comes first, the peptide text is derived from it. The star is where a group is joined. Dabcyl = CN(C)c1ccc(N=Nc2ccc(C(=O)*)cc2)cc1; EDANS = O=S(=O)(O)c1cccc2c(NCCN*)cccc12

System: Yersinia pestis cells lacking plague plasminogen activator gene
Type: cell-based

Compound: CC[C@H](C)[C@H](NC(=O)[C@H](CCCNC(=N)N)NC(=O)[C@H](CCCNC(=N)N)NC(=O)c1ccc(N=Nc2ccc(N(C)C)cc2)cc1)C(=O)N[C@@H](CC(N)=O)C(=O)N[C@@H](CCCNC(=N)N)C(=O)N[C@@H](CCC(=O)NCCNc1cccc2c(S(=O)(=O)O)cccc12)C(N)=O [DABCYL-Arg-Arg-Ile-Asn-Arg-Glu-(EDANS)-NH2] (Dabcyl-RRINRE(EDANS)-NH2)
- fluorescence with Pla-negative mutant: low background fluorescence
